In US20090162351A1, “Transdiscal administration of inhibitors of p38 MAP kinase” (DePuy Spine, Inc., priority 2007, published 2009):
Several values for one entry are separate records, joined by “and”; a condition that tells them apart may be missing. Equal entries are not always repeated. Where two headings read alike, the source gives them in different places.

Tests used:
[1] = system: injured bovine cartilage explants
From the text: Bovine articular cartilage was obtained from the knee joints of adult, eighteen to twenty-four month old animals and processed within twenty-four hours after sacrifice. […] Care was taken to consistently prepare the same thickness of bone layer. The cartilage-on-bone specimens were subjected to an impact. […] After each impact, the cartilage area with a visible indent of ˜0.5-1 mm in the center was punched out with a 3 mm diameter puncher and immediately soaked in PBS with 1× Antibiotic-Antimycotic. Throughout the impact procedure and preparation of specimens, the cartilage was kept moist using PBS to prevent tissue dehydration. The cartilage discs were sterilized through 3× one hour wash in PBS with 10× Antibiotic-Antimycotic followed by 1×0.5 hour wash in PBS with 1× Antibiotic-Antimycotic. After wash, the specimens were incubated with conditioned medium harvested from peripheral blood mononuclear cells (PBMC) stimulated with or without LPS and at the same time, were treated with or without compounds for five days at 37° C., 5% CO2. Culture medium was collected for GAG release, NO and PGE2 assays, and assessment for cytotoxicity.
Cell death was assessed by measuring the amount of lactate dehydrogenase (LDH) in the culture supernatant. 10-20 μl of culture medium was incubated with the reaction mixture from the Cytotoxicity Detection Kit (LDH, Roche), as described in Example III above. The amount of formazan formed was measured at 500 nm, which was proportional to the number of dead cells. Since no purified LDH was available for a standard curve at each measurement, an LDH level for 100% dead cells was measured in each experiment. The lysate for the dead cells was prepared as follows: Chondrocytes were enzymatically isolated as described earlier and about 0.1 million cells that were equivalent to the number of cells contained in a 3-mm punch of fresh cartilage explant were lysed in 1 ml of PBS with 1% Triton-100. Approximately 10-20 μl of the lysate was used in the assay as killed cell control. […]

[2] = system: IL-1β-stimulated NO production in bovine chondrocyte pellets / ARC tissues; assay: Chondrocyte pellet / ARC culture model: total nitrite and nitrate assay; format: cell-based; conditions: for effect on IL-1β-stimulated NO production (in words): chondrocyte pellet / ARC model
From the text: Calf articular cartilage was obtained from the knee joints of eight to twelve month old animals and was processed within twenty-four hours after sacrifice. After removal of muscle and ligament, the cartilage was kept moist using phosphate buffer solution (PBS) to prevent tissue dehydration, and was aseptically peeled off from subchondral bone with a scalpel, and the cartilage pieces were further minced into smaller pieces (˜0.3-0.5×˜0.2-0.5 cm cubes). […] Chondrocytes were then enzymatically isolated from the tissue by incubation for overnight at 37° C. with gentle agitation in 0.2% collagenase in Dulbecco's modified eagle media (DMEM). After removal of tissue debris by filtration through cell strainer and the residual collagenase by 3× wash in PBS, cells were finally resuspended at a density of 2.5×10^6 cells/ml in chondrocyte medium. A 1 ml aliquot of the cell suspension was dispensed into either a 15 ml Falcon centrifuge tube or a 96 deep-well plate and centrifuged at 2000×g for five minutes. The chondrocyte pellets were incubated at 37° C. in a humidified atmosphere of 5% CO2 for two to three weeks with a medium change every other day.
As an alternative to using calf articular cartilage, a commercial Aliginate Recovered Chondrocytes (ARC) system was also used (Articular Engineering, LLC (Northbrook, Ill.)). Use of the commercial system cut down on labor and time in producing chondrocyte pellet. This system produced cartilaginous tissue in vitro using bovine chondrocytes. The first step consisted of culturing chondrocytes in alginate under conditions optimal for the formation of a cell-associated matrix (CM). The second step allowed these cells with their CM, after recovery, to rapidly form and become integrated into a solid mass of cartilage on a porous insert within two weeks.
Chondrocyte pellets were washed once with 1 ml of Chondrocyte Stimulation Medium and equilibrated in the same medium at room temperature for fifteen to thirty minutes. Compounds were dissolved in H2O, Ethanol or dimethyl sulfoxide (DMSO) (10^−2 M) according to suppliers' instructions and further diluted with Chondrocyte Stimulation Medium to the required concentrations. DMSO concentrations in the culture media should not exceed 1%; this concentration of DMSO has no effect on cartilage proteoglycan metabolism in response to cytokines.
The pellets were first treated with compounds at desired concentrations at 37° C. for one hour and then incubated for three to five days in the absence or presence of 10 ng/ml of IL-1β. At the end of the incubation, media and pellets were harvested and frozen for further analysis. Pellets were also fixed as needed in 4% (w/v) paraformaldehyde in PBS for histology analysis.
Nitrate/Nitrite levels were measured using the Griess reaction (Green L. C. et al., “Analysis of Nitrate, Nitrite, and [15N]nitrate in Biological Fluids,” Anal. Biochem. 126: 131-138 (1982)) with a Nitrate/Nitrite Colorimetric Assay Kit (Cayman Chemicals), the contents of which are incorporated herein by reference. The assay involved a simple two-step process. The first step involved conversion of nitrate in 50 μl of culture medium to nitrite utilizing nitrate reductase in a reaction volume of 100 μl at room temperature for two hours. The second step involved the addition of 50 μl of both Griess Reagent 1 and 2, which converted nitrite into a deep purple azo compound in ten minutes. Photometric measurement of the absorbance at 540 or 550 nm due to this azo chromophore accurately determined nitrite concentration. This assay kit cannot be used for RPMI (Roswell Park Memorial Institute) derived tissue culture medium due to interference with the colorimetric reaction.
To characterize the relative efficacies among different p38 MAP kinase inhibitors, dose-response curves were generated for both PGE2 and NO assays. […] After one hour of treatment, ARCs were stimulated with or without 7.5 ng/ml IL-1β and continued to incubate for five days before assay. […]

[3] = system: NO production in injured bovine cartilage explants; assay: Drop tower model: NO production in injured cartilage explants; format: cell-based; conditions: for inhibition at 10 µM: Bos taurus, injured cartilage explants; for effect on NO production (in words): drop tower model, cocktail of cytokines
Method: In the second method, the explants were cultured at 37° C., 5% CO2 either in stimulated or non-stimulated conditioned medium as described above or in defined medium containing DMEM supplemented with 1% FCS, 1× insulin-transferrin-sodium selenite media supplement and Antibiotics-Antimycotics in the presence or absence of a cocktail of cytokines containing 10 ng/ml of IL-1β, 100 ng/ml of TNFα and 5 ng/ml of IFN-γ. The compounds were solubilized in H2O, Ethanol or DMSO (10^−2 M) according to suppliers' instructions and further diluted with either conditioned medium stimulated with or without LPS to the required concentrations. DMSO concentrations in the culture media never exceeded 1%. This concentration of DMSO has no effect on cartilage proteoglycan metabolism in response to cytokines. The injured and noninjured cartilage explants were treated with compound-containing medium for three to five days. The specimens were first treated with compounds at desired concentrations at 37° C. for one hour and then incubated for three to five days in the absence or presence of the cocktail of cytokines. At the end of the incubation, media and cartilage samples were harvested and frozen for further analysis.
Nitrate/Nitrite was measured using the Griess reaction (Green L. C. et al., “Analysis of Nitrate, Nitrite, and [15N]nitrate in Biological Fluids,” Anal. Biochem. 126: 131-138 (1982)) with a Nitrate/Nitrite Colorimetric Assay Kit (Cayman Chemicals), as described in Example III above.

p38α MAP kinase (h-p38α) = p38α MAP kinase (h-p38α) (Homo sapiens, UniProt Q16539); assay: p38α MAP kinase inhibition (direct enzyme assay); format: biochemical; conditions: read-out: inhibitor of p38a MAP kinase, IC50
Water solubility = format: physicochemical
COX1 = COX1 (Homo sapiens, UniProt P23219); assay: COX1 inhibition; format: biochemical; conditions: read-out: inhibitor of COX1, IC50
[4] = system: TNFα in human whole blood; assay: TNFα inhibition, human whole blood assay (h-WBA / HWB); format: cell-based
[5] = Bos taurus, Chondrocyte, 120 h, bovine ARCs, 7.5 ng/ml IL-1β, five days, sigmoidal dose-response fit, read-out: NO, IC50
[6] = bovine ARCs, 7.5 ng/ml IL-1β, five days, sigmoidal dose-response fit, read-out: NO, IC50

p38α MAP kinase (h-p38α), sequence (Q16539 whole entry): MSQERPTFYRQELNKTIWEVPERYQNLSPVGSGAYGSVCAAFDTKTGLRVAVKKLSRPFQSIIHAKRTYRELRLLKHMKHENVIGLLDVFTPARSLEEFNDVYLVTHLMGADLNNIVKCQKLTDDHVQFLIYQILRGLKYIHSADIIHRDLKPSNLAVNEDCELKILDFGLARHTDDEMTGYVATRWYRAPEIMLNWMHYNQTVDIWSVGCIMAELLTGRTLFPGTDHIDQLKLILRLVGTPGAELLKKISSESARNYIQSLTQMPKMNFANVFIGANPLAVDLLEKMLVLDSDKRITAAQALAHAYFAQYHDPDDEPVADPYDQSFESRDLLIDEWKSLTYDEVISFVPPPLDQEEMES
COX1, sequence (P23219 24-599): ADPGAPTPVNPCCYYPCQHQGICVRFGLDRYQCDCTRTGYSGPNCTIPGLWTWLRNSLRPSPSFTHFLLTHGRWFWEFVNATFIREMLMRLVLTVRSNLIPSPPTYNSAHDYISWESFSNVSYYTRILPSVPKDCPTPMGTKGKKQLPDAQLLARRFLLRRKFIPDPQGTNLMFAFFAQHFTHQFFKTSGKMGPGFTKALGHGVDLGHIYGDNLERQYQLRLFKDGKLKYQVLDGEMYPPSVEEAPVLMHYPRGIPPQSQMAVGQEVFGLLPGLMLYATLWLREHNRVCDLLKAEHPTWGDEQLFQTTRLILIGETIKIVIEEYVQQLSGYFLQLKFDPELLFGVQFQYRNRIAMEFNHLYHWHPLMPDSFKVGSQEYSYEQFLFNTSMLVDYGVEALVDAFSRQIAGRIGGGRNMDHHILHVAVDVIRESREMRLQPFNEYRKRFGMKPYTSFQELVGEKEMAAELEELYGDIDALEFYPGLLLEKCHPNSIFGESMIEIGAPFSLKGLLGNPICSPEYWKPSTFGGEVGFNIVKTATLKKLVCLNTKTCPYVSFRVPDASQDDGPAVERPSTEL

Compound: CC(=O)Oc1cccc2c1C(=O)c1c(OC(C)=O)cc(C(=O)O)cc1C2=O [Diacerein, reference compound]
- cytotoxicity, LDH (in words) [1]: tolerant
- NO production (in words) ([2]; diacerein at 5.4 μM, rhein at 0.35 μM, 10 ng/ml IL-1β, five days): significantly inhibited

Compound: OCCC#Cc1nc(-c2ccc(F)cc2)c(-c2ccncc2)n1CCCc1ccccc1 [JNJ 3026582 (RWJ 67657), 4-[4-(4-fluorophenyl)-1-(3-phenylpropyl)-5-(4-pyridinyl)-1H-imidazol-2-yl]-3-butyn-1-ol]
- inhibition at 10 µM [3]: 66%
- effect on NO production (in words) [3]: dose-dependently inhibited
- IC50 (p38α MAP kinase (h-p38α)): 20 nM
- pH at which soluble (Water solubility): < 2
- water solubility (in words) (Water solubility): poor water solubility
- solubility in 0.1 M HCl (in words) (Water solubility; 0.1 M HCl): soluble in 0.1 M HCl
- IC50 (COX1): > 10 µM
- IC50 [2, 5]: 119 nM
- IC50 ([2]; Bos taurus, Chondrocyte, Table 3B, read-out: NO Inhibition, Pellet Assay, IC50): 119 nM
- effect on IL-1β-stimulated NO production (in words) [2]: inhibited

Compound: C[C@H](Nc1nccc(-c2c(-c3ccc(F)cc3)nc3nc(N)ccn23)n1)c1ccccc1 [JNJ 7583979 (RWJ 351958)]
- IC50 (p38α MAP kinase (h-p38α)): 1 nM
- IC50 ([4]; Homo sapiens, read-out: inhibitor of TNF human whole blood (HWB), IC50): 5 nM
- water solubility (in words) (Water solubility): poor water solubility
- solubility (Water solubility; water (aqueous, simulated gastric fluid), at pH 2, read-out: solubility): > 1000 µg/mL
- IC50 (COX1): > 10 µM
- inhibition at 0.5 µM ([2]; Bos taurus, Chondrocyte, at 0.5 μM): 50%
- effect on IL-1β-stimulated NO production (in words) [2]: significantly inhibited

Compound: CC(=O)N1CCN(c2c(-c3ccncc3)c(-c3ccc(F)cc3)c(C#N)n2C)CC1 [JNJ 17089540 (RWJ 669307)]
- effect on NO production (in words) [3]: dose-dependently inhibited
- IC50 (p38α MAP kinase (h-p38α)): 2000 nM
- water solubility (Water solubility; of HCl salt): > 100 mg/mL
- IC50 (COX1): > 10 µM
- IC50 ([2]; Table 3B, read-out: NO Inhibition, Pellet Assay, IC50): 4900 nM
- IC50 [2, 6]: 4920 nM
- effect on IL-1β-stimulated NO production (in words) [2]: weaker inhibitor

Compound: CO[C@H]1C[C@@H]2CC[C@@H](C)[C@@](O)(O2)C(=O)C(=O)N2CCCC[C@H]2C(=O)O[C@H]([C@H](C)C[C@@H]2CC[C@@H](O)[C@H](OC)C2)CC(=O)[C@H](C)/C=C(\C)[C@@H](O)[C@@H](OC)C(=O)[C@H](C)C[C@H](C)/C=C/C=C/C=C/1C [Rapamycin, reference compound]
- cytotoxicity, LDH (in words) [1]: little cytotoxicity
- inhibition at 10 µM ([2]; Bos taurus, Chondrocyte): 30%

Compound: O=C(O)c1cc(O)c2c(c1)C(=O)c1cccc(O)c1C2=O [Rhein, reference compound]
- cytotoxicity, LDH (in words) [1]: tolerant

Compound: C[C@@H]1CN(Cc2ccc(F)cc2)[C@@H](C)CN1C(=O)c1cc2cc(C(=O)C(=O)N(C)C)[nH]c2cc1Cl [SCIO-282 (SD 282)]
- effect on NO production (in words) [3]: dose-dependently inhibited
- EC50 ([4]; 10× diluted, read-out: inhibits TNFα h-WBA (EC50)): 70 nM
- water solubility (in words) (Water solubility): limited water solubility
- IC50 [2, 6]: 74 nM and 74.4 nM
- effect on IL-1β-stimulated NO production (in words) [2]: inhibited

Compound: C[C@@H]1CN(Cc2ccc(F)cc2)[C@@H](C)CN1C(=O)c1cc2c(C(=O)C(=O)N(C)C)cn(C)c2cc1Cl [SCIO-469 (SD 469)]
- effect on NO production (in words) [3]: inhibited
- EC50 ([4]; Homo sapiens, 10× diluted, read-out: inhibits TNFα h-WBA (EC50)): 1600 nM
- EC50 ([4]; Homo sapiens, Table 2, read-out: TNFα Inhibition h-WBA (EC50)): 1600 nM
- IC50 [2, 5]: 18 nM
- IC50 ([2]; Bos taurus, Chondrocyte, Table 3B, unit inferred, read-out: NO Inhibition, Pellet Assay, IC50): 107 nM
- IC50 [2, 6]: 18 nM

Compound: CC(C(=O)O)c1ccc(C(=O)c2cccs2)cc1 (centres unmarked) [Suprofen, reference compound]
- inhibition at 10 µM ([2]; Bos taurus, Chondrocyte): 20%

Compound: COc1ccc(-n2nc(CCC(=O)N(C)O)cc2-c2ccc(Cl)cc2)cc1 [Tepoxalin, reference compound]
- inhibition at 10 µM [3]: 100%
- inhibition at 10 µM ([2]; Bos taurus, Chondrocyte): 50%

Compound: Cc1ccc(C(=O)c2ccc(CC(=O)O)n2C)cc1 [Tolmetin, reference compound]
- NO Inhibition, Pellet Assay (in words) ([2]; Table 3B): No effect
